Like-named read-outs stand apart in the source and are kept apart here.
Assays:
[1] = tested on: W-2 Indochina P. falciparum clone; test: in vitro testing against P. falciparum, W-2 Indochina clone; format: cell-based; conditions: for IC50: Plasmodium falciparum
From the text: (§1) The analog 1 was sent to Walter Reed Army Institute of Research (WRAIR) for in vitro testing against P. falciparum using modifications of the procedures of Desjardins et al, 1979, and Milhous et al, 1985, (Desjardins, R. E., C. J. Canfield, D. E. Haynes, and J. D. Chulay, Antimicrob. Angents Chemother., Vol. 16, 710-718 (1979); Milhous, W. K., N. F. Weatherly, J. H. Bowdre, and R. E. Desjardins, Antimicrob. Agents Chemother. Vol. 27, 525-530, 1985.) to assess the intrinsic activity of compound 1 as an anti-malarial drug relative to simultaneous known controls such as chloroquine, mefloquine; pyrimethamine, sulfadoxine, tetracycline, qinghaosu or quinine. Since some anti-malarials are more static than cidal in action, it is necessary to extend the incubation period to assess the effects of such drugs on parasite growth rates. In order to insure exponential parasite growth and maximum uptake of radioisotope throughout the extended incubation, reduced starting parasitemias (0.2%) and reduced red cell hematocrits (1.0%) are required. As a result, drugs which are actively incorporated into erythrocytes (such as chloroquine or qinghaosu) will have slightly lower 50% inhibitory concentrations than in other assay systems employing higher red cell hematocrits. Except for the contribution from the 10% normal pooled human plasma and added 10^-10 M (0.014 ng/ml) PABA, the culture medium is folate-free. The trace amount of PABA insures exponential growth of the sulfonamide-susceptible parasite clone without antagonizing the activity of antifol anti-malarials.
(§2) All test compounds are solubilized in DMSO and diluted 400-fold (to rule out a DMSO effect) in culture medium with plasma for a starting concentration of at least 12,500 ng/ml. Drugs are subsequently diluted fivefold using the Cetus Pro/Pette™ system utilizing a range of concentrations from 0.8 ng/ml to 12,500 ng/ml. Fifty percent inhibitory concentrations are reported in ng/ml.
(§3) Table 1 summarizes differences in the susceptibility profiles of the two control P. falciparum clones (Oduola, A. M. J., N. F. Weatherly, J. H. Bowdre, R. E. Desjardins, Thirty-second Annual Meeting, American Society of Tropical Medicine and Hygiene, San Antonio, Tex., Dec. 4-8, 1983) and provides results of testing. The W-2 Indochina P. falciparum clone is resistant to chloroquine, pyrimethamine and sulfadoxine but […]. The D-6 African P. falciparum clone is susceptible to chloroquine, pyrimethamine and sulfadoxine but […].

[2] = tested on: D-6 African P. falciparum clone; test: in vitro testing against P. falciparum, D-6 African clone; format: cell-based
From the text: as §1, §2, §3

P. falciparum = test: in vitro testing against P. falciparum (two strains together / assay medium); format: cell-based
From the text: as §1, with “Except for the contribution from the 10% normal pooled human plasma and added 10^-10 M (0.014 ng/ml) PABA, the culture medium is folate-free. The trace amount of PABA insures exponential growth of the sulfonamide-susceptible parasite clone without antagonizing the activity of antifol anti-malarials.” left out

[3] = tested on: W-2 Indochina P. falciparum clone; conditions: W-2 Indochina clone; cited from earlier work
[4] = tested on: D-6 African P. falciparum clone; conditions: D-6 African clone; cited from earlier work
[5] = Plasmodium falciparum, D-6 African clone (strain head not given; assigned), read-out: IN VITRO ED50 (fifty percent inhibitory concentration)
[6] = Plasmodium falciparum, D-6 African clone (strain head not given; assigned), read-out: IN VITRO ED50 (fifty percent inhibitory concentration), × 10^-9 M

Row | IC50 [2, 5] | IC50 [2, 6] | Compound | susceptibility of the clone [3] | susceptibility of the clone [4] | also measured
1 | 21.1 ng/mL | 83 nM | C[C@@]12CC[C@H]3CCC[C@H]4CC(=O)O[C@H](O1)[C@@]34OO2 (relative stereo) [Compound 1, (±)-13,14-desmethylartemisinin] |  |  | potency relative to chloroquine ([1]; W-2 Indochina strain): about three times as potent as the classical antimalarial agent chloroquine; activity relative to the natural product Qinghaosu ([1]; W-2 Indochina strain, fraction as active as Qinghaosu): approximately 1/2; antimalarial activity (in words) (P. falciparum; data of Table 1): highly active antimalarial agent; antimalarial potency (P. falciparum; varies with strain, versus the other five compounds): still in the nanogram range
2 |  |  | CCO[C@H]1O[C@@H]2O[C@@]3(C)CC[C@H]4[C@H](C)CC[C@@H]([C@H]1C)[C@@]24OO3 [Arteether] |  |  | IN VITRO ED50 (fifty percent inhibitory concentration) ([1]; W-2 Indochina clone (strain head not given; assigned)): 1.23 ng/mL; IN VITRO ED50 (fifty percent inhibitory concentration) ([2]; D-6 African clone (strain head not given; assigned)): 1.87 ng/mL; IC50 ([2]; D-6 African clone (strain head not given; assigned), read-out: IN VITRO ED50 (fifty percent inhibitory concentration), × 10^-9 M): 6 nM
3 |  |  | CCN(CC)CCCC(C)Nc1ccnc2cc(Cl)ccc12 (stereo not drawn) [Chloroquine] | resistant | susceptible | IC50 ([1]; read-out: IN VITRO ED50 (fifty percent inhibitory concentration), ng/ml): 26.8 ng/mL; IC50 ([1]; read-out: IN VITRO ED50 (fifty percent inhibitory concentration), × 10^-9 M): 52.1 nM; IC50 ([2]; Plasmodium falciparum, read-out: IN VITRO ED50 (fifty percent inhibitory concentration), ng/ml): 5.91 ng/mL; IC50 ([2]; Plasmodium falciparum, read-out: IN VITRO ED50 (fifty percent inhibitory concentration), × 10^-9 M): 11.5 nM
4 | 0.47 ng/mL | 1.68 nM | C[C@@H]1CC[C@H]2[C@@H](C)C(O)O[C@@H]3O[C@@]4(C)CC[C@@H]1[C@]32OO4 (stereo partly drawn) [Dihydro-quinghaosu] |  |  | 
5 | 22.2 ng/mL | 53.7 nM | OC(c1cc(C(F)(F)F)nc2c(C(F)(F)F)cccc12)C1CCCCN1 (stereo not drawn) [Mefloquine] | susceptible | resistant | 
6 | 3.09 ng/mL | 11 nM | C[C@@H]1CC[C@H]2[C@@H](C)C(=O)O[C@@H]3O[C@@]4(C)CC[C@@H]1[C@]32OO4 [Qinghaosu, artemisinin] |  |  | 
7 |  |  | CCc1nc(N)nc(N)c1-c1ccc(Cl)cc1 [pyrimethamine] | resistant | susceptible | 
8 |  |  | COc1ncnc(NS(=O)(=O)c2ccc(N)cc2)c1OC [sulfadoxine] | resistant | susceptible | 
